Measured values reported in patent US20100218415A1, “HYDROXYMETHYLFURFURAL ETHERS FROM SUGARS AND HIGHER ALCOHOLS” (FURANIX TECHNOLOGIES B.V., priority 2007, published 2010).
Where two headings read alike, the source gives them in different places.

Assay: Fuel solubility: blends with commercial diesel
Type: physicochemical
Excerpt: Fuel solubility is a primary concern for diesel fuel applications. Not all highly polar oxygenates have good solubility in the current commercial diesel fuels.

CCOCc1ccc(C=O)o1 [EMF, ethoxymethylfurfural]
miscibility with commercial diesel (5 vol % blend with commercial diesel): completely miscible | miscibility with commercial diesel (25 vol % blend with commercial diesel): phase separation occurs | miscibility with commercial diesel (40 vol % blend with commercial diesel): phase separation occurs

CCCCCCCCOCc1ccc(C=O)o1 [OMF, 5-(octyloxymethyl)furfural]
miscibility with commercial diesel: completely miscible
